Paper PMC10586285 (ACS Omega, 2023)
Read-outs that look alike come from different tables or passages of the source.

Experiments:
[1] = cited from earlier work
[2] = cited from earlier work; remark: listed apart in the source
[3] = target: T1, COX-2 (Homo sapiens, UniProt P35354); experiment: biochemical; settings: for COX-2 selectivity: selectivity index = IC50 COX-1 / IC50 COX-2
T1 sequence (P35354 18-604): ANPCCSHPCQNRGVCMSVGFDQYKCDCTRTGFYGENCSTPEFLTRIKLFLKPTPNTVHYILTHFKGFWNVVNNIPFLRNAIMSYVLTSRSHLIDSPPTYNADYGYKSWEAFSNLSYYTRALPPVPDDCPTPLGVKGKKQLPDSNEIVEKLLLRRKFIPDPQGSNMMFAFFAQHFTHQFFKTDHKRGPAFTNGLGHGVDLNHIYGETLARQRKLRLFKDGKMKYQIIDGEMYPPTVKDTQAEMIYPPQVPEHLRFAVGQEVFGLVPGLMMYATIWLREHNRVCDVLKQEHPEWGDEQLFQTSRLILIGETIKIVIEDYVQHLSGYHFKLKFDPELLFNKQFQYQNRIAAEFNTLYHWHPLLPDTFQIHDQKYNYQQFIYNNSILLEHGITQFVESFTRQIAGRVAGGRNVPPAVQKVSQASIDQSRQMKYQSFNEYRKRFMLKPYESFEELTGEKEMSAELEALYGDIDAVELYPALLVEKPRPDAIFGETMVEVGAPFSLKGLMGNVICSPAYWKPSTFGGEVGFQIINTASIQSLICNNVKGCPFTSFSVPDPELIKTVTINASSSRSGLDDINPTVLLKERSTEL

[4] = system: Hep G2 cells; experiment: Anticancer test; format: cell-based; settings: for IC50: read-out: IC50 (Hep G2)
[5] = DPPH antioxidant; settings: for IC50: read-out: IC50 (Antioxidant), DPPH assay
[6] = target: COX-1 (Homo sapiens, UniProt P23219); experiment: biochemical
[7] = system: HeLa cells; experiment: Anticancer test; format: cell-based; settings: for IC50: read-out: IC50 (Hela Cells)
[8] = system: Caco-2 cells; experiment: Anticancer test; format: cell-based; settings: for IC50: read-out: IC50 (Caco-2 Cells)
[9] = Hep G2 cells, MTS, 48 h, concentration range 100-20,000 nM
[10] = read-out: COX-2 IC50, human COX-2, ELISA kit
[11] = read-out: COX-1 IC50, human COX-1, ELISA kit
[12] = Caco-2 cells, MTS, 48 h, concentration range 100-20,000 nM

COX-1, sequence (P23219 24-599): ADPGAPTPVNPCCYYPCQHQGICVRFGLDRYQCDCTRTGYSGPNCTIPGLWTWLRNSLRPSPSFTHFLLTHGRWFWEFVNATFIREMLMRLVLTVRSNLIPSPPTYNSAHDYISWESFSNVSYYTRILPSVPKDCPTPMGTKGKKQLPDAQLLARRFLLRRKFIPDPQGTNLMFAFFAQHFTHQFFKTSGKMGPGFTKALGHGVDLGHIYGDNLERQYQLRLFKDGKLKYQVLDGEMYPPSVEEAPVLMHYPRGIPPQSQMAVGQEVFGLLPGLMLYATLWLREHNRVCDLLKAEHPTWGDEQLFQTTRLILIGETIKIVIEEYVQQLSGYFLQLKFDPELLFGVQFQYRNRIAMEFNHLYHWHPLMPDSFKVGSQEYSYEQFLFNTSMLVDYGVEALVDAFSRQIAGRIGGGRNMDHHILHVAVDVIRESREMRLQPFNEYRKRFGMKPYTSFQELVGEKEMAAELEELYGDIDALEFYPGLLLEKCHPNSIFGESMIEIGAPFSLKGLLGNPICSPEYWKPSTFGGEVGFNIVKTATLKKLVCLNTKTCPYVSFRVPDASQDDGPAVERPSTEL

| Compound | IC50 [3] | COX-2 selectivity [3] | percentage inhibition of DPPH ([5]; conc 1 μg/mL) | percentage inhibition of DPPH ([5]; conc 2 μg/mL) | percentage inhibition of DPPH ([5]; conc 3 μg/mL) | percentage inhibition of DPPH ([5]; conc 5 μg/mL) | percentage inhibition of DPPH ([5]; conc 7 μg/mL) | percentage inhibition of DPPH ([5]; conc 10 μg/mL) | percentage inhibition of DPPH ([5]; conc 20 μg/mL) | percentage inhibition of DPPH ([5]; conc 30 μg/mL) | percentage inhibition of DPPH ([5]; conc 50 μg/mL) | IC50 [6] | other results |
| --- | --- | --- | --- | --- | --- | --- | --- | --- | --- | --- | --- | --- | --- |
| N[C@@H](CSC(c1ccccc1)(c1ccccc1)c1ccccc1)C(=O)O [STLC, S-trityl-L-cysteine] |  |  |  |  |  |  |  |  |  |  |  |  | water solubility [1]: poor; permeability [2]: poor |
| OC1(Cc2ccccc2)c2ccccc2Sc2ccccc21 [Compound 2, 9-Benzyl-9H-thioxanthen-9-ol] | 7.2 ± 0.58 nM | 0.78 | 0.26 ± 0.01% | 0.26 ± 0.03% | 0.33 ± 0.04% | 0.33 ± 0.01% | 26.00 ± 7.20% | 27.00 ± 1.03% | 28.00 ± 2.14% | 29.00 ± 1.15% | 32.00 ± 3.75% | 5.63 ± 0.74 nM | IC50 ([4]; Homo sapiens, HepG2, 48 h): 161 ± 41 nM; inhibition at 0.2 µM ([4]; Homo sapiens, HepG2, read-out: inhibition against Hep G2 cells): 100% |
| Cc1c(C)c2c(c(C)c1O)CCC(C)(C(=O)O)O2 (stereo not drawn) [Trolox, reference compound] |  |  | 37 ± 2.21% | 54 ± 3.42% | 81 ± 4.25% | 86 ± 5.33% | 91 ± 7.52% | 92 ± 10.71% | 93 ± 13.90% | 94 ± 10.89% | 94.5 ± 12.64% |  | IC50 [5]: 6070 ± 800 nM |
| N[C@@H](CSC1(c2ccccc2)c2ccccc2Oc2ccccc21)C(=O)O [Compound 6, S-(9-phenyl-9H-xanthen-9-yl)-L-cysteine] | 130 ± 1.71 nM | 0.33 | 18.0 ± 1.02% | 18.0 ± 2.03% | 22.0 ± 1.01% | 28.0 ± 0.01% | 28.0 ± 0.01% | 30.0 ± 0.01% | 30.0 ± 0.01% | 30.0 ± 0.01% | 30.0 ± 0.01% | 42.4 ± 0.58 nM | IC50 (Hep G2) [4, 9]: did not exhibit any inhibition |
| COc1cccc2c1C(=O)c1c(O)c3c(c(O)c1C2=O)C[C@@](O)(C(=O)CO)C[C@@H]3O[C@H]1C[C@H](N)[C@H](O)[C@H](C)O1 [doxorubicin, reference compound] |  |  |  |  |  |  |  |  |  |  |  |  | IC50 ([7]; Homo sapiens, HeLa, 48 h): 110 ± 15 nM; IC50 ([4]; Homo sapiens, HepG2, 48 h): 1060 ± 43 nM; IC50 ([8]; Homo sapiens, Caco-2, 48 h): 497 ± 0.36 nM |
| N[C@@H](CSC1(Cc2ccccc2)c2ccccc2Oc2ccccc21)C(=O)O [Compound 5, S-(9-benzyl-9H-xanthen-9-yl)-L-cysteine] |  |  | 5.0 ± 0.01% | 6.0 ± 0.02% | 7.0 ± 0.01% | 7.0 ± 0.51% | 7.0 ± 0.67% | 7.0 ± 0.35% | 11.4 ± 1.01% | 11.4 ± 2.10% | 12.0 ± 1.33% |  |  |
| N[C@@H](CSC1(c2ccccc2)c2ccccc2Sc2ccccc21)C(=O)O [Compound 7, S-(9-phenyl-9H-thioxanthen-9-yl)-L-cysteine] | 4.37 ± 0.78 nM |  | 22.0 ± 3.31% | 22.0 ± 3.11% | 22.0 ± 2.22% | 29.0 ± 4.22% | 22.0 ± 1.22% | 26.0 ± 3.44% | 23.0 ± 1.11% | 23.0 ± 1.21% | 23.0 ± 3.10% | 16.7 ± 0.84 nM | COX-2 selectivity ([3]; listed as comp (7)): 3.78; IC50 (Hela Cells) ([7]; HeLa cells, MTS, 48 h, concentration range 100-20,000 nM): no activity; IC50 (Hep G2) [4, 9]: did not exhibit any inhibition |
| 9-Phenyl-9H-thioxanthen-9-ol [Compound 3] |  | 1.67 | 0.14 ± 0.02% | 0.15 ± 0.01% | 0.15 ± 0.03% | 0.29 ± 0.01% | 18.20 ± 1.40% | 18.00 ± 2.37% | 15.60 ± 2.01% | 19.90 ± 1.0% | 20.00 ± 3.12% |  | IC50 [3, 10]: 7.69 ± 0.55 nM; IC50 [4, 9]: 438 ± 33 nM; IC50 [6, 11]: 12.8 ± 0.63 nM; IC50 [8, 12]: 9.6 ± 1.1 nM |
| 9-Phenyl-9H-xanthen-9-ol [Compound 4] |  |  | 10 ± 0.01% | 16.0 ± 0.02% | 27.0 ± 0.01% | 33.0 ± 1.21% | 33.0 ± 2.13% | 35.0 ± 2.31% | 35.0 ± 3.31% | 39.0 ± 5.51% | 39.4 ± 2.44% |  | IC50 [3, 10]: 14 ± 1.7 nM; inhibition against HeLa cells ([7]; at 0.2 μM): 98%; inhibition against Hep G2 cells ([4]; at 0.2 μM): 100%; IC50 [4, 9]: 400 ± 56 nM; IC50 [5]: 15400 ± 6000 nM; IC50 [6, 11]: 6.52 ± 0.85 nM; percentage inhibition against Caco-2 cells ([8]; at 0.2 μM): 98%; IC50 [8, 12]: 24.6 ± 8 nM |
| OC1(Cc2ccccc2)c2ccccc2Oc2ccccc21 [Compound 1, 9-Benzyl-9H-xanthen-9-ol] |  |  | 0.31 ± 0.02% | 0.36 ± 0.02% | 0.36 ± 0.01% | 0.31 ± 0.01% | 36.40 ± 4.11% | 36.40 ± 3.31% | 40.20 ± 5.21% | 35.50 ± 1.01% | 35.10 ± 3.31% |  | IC50 ([7]; Homo sapiens, HeLa, 48 h): 213 nM; inhibition at 0.2 µM ([7]; Homo sapiens, HeLa, read-out: inhibition against HeLa cells): 96%; inhibition at 0.2 µM ([8]; Homo sapiens, Caco-2, read-out: percentage inhibition against Caco-2 cells): 96% |
